Results on four compounds are retold here after PMC6684646, “Lysosomal integral membrane protein-2 (LIMP-2/SCARB2) is involved in lysosomal cholesterol export” (Nature Communications, 2019).

For experiment [1], the target named is T1, LIMP-2 ectodomain (His6.hLIMP-2(aa35-430)) (Homo sapiens, UniProt Q14108).
T1 construct: gene SCARB2; luminal domain aa 35-430, N-terminal His6 tag (cloned after a protein A tag)
T1 sequence (Q14108 35-430): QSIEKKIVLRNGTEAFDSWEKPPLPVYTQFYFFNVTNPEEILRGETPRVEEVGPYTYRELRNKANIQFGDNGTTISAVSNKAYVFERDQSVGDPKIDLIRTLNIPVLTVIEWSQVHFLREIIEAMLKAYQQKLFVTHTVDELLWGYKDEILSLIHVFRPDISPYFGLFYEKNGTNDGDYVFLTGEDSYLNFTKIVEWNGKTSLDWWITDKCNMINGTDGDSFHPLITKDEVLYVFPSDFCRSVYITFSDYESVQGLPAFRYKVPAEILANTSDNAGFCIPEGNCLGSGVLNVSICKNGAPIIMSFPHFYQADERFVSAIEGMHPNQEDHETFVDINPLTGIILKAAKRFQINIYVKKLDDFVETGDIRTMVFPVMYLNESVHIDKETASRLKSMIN
Kind of experiment: UV crosslinking and click rhodamine, SDS-PAGE. The format is binding. The settings on record: covalent; labelled compound; 50 µM probe, 12 h at 4 °C, UV 15 min.

In experiment [2] the target is T1, LIMP-2 ectodomain (His6.hLIMP-2(aa35-430)). Kind of experiment: microscale thermophoresis. The format is binding. The settings on record: 25 nM protein labelled with Red-tris-NTA; 300 mM NaAc pH 6.0, 150 mM NaCl, 0.05% Tween 20, 0.1% Fos-Choline 13; room temperature; read-out: EC50. The text has this: microscale thermophoresis on LIMP-2 ectodomain (His6.hLIMP-2(aa35-430)) | direct interaction between purified, soluble His-tagged LIMP-2 protein labeled with Red-tris-NTA dye and cholesterol

Structures are written as SMILES.

For `C#CCCCC1(CCCCCCCCC(=O)N[C@@H](CO)[C@H](O)/C=C/CCCCCCCCCCCCC)N=N1` [pacFA ceramide], in experiment [1], the “UV crosslinking and click rhodamine, SDS-PAGE” value is “fatty acids, ceramide and sphingosine bound with lower affinity”.
Consider `C#CCCCC1(CCCCCCCC/C=C/[C@@H](O)[C@@H](N)CO)N=N1` [photoclick sphingosine], for which the “UV crosslinking and click rhodamine, SDS-PAGE” value in experiment [1] is “fatty acids, ceramide and sphingosine bound with lower affinity”.
As for `C#CCCCC1(CCCCCCCCC(=O)O)N=N1` [pacFA], in experiment [1], the “UV crosslinking and click rhodamine, SDS-PAGE” value was “fatty acids, ceramide and sphingosine bound with lower affinity”.
As for `CC(C)CCC[C@@H](C)[C@H]1CC[C@H]2[C@@H]3CC=C4C[C@@H](O)CC[C@]4(C)[C@H]3CC[C@]12C` [cholesterol], the Kd in experiment [2] turned out to be 0.112 ± 0.032 µM.
